The source of these data is publication PMC11269185, “Glutamate acts on acid-sensing ion channels to worsen ischaemic brain injury” (Nature, 2024).

Common to all, as to type: binding
Assay [1] deals with T1, ASIC1a (acid-sensing ion channel 1a) (Homo sapiens, UniProt P78348).
T1 sequence (P78348 1-528): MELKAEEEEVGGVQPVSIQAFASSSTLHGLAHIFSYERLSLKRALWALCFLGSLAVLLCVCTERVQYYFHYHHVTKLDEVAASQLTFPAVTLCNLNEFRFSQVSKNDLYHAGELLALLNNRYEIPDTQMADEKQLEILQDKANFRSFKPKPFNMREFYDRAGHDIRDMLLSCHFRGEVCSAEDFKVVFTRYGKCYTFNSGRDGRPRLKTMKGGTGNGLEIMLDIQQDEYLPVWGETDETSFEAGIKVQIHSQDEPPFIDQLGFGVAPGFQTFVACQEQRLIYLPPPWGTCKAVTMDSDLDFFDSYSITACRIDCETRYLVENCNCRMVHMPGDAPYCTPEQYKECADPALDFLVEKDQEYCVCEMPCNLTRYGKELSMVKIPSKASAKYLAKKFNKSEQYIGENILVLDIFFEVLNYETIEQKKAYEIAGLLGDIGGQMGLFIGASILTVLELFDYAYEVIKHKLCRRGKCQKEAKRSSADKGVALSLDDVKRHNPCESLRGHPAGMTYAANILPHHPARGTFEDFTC
Description: microscale thermophoresis in cell lysate, pH […] ([…] at pH […]); patch clamp. Details: gene ASIC1; GFP-tagged hASIC1a in lysates of transfected HEK293T cells.

The target of assay [2] is T1, ASIC1a (acid-sensing ion channel 1a). The assay is described as follows: microscale thermophoresis in cell lysate, pH […]; patch clamp. Also noted: gene ASIC1; GFP-tagged ASIC1a in HEK293T lysate.
For assay [3] the target is unchanged. The assay is described as follows: microscale thermophoresis in cell lysate, pH […]; patch clamp (IC50 […] against glutamate potentiation). Details: gene ASIC1; eGFP-tagged wild-type ASIC1a in HEK293T lysate.

As to `N[C@@H](CCC(=O)O)C(=O)O` [glutamate], binding in assay [1] was characterised by a dissociation constant (Kd) of 113000 nM.

`O=C(O)C1CN(C(c2ccccc2)P(=O)(O)O)CCN1` (stereo not drawn) [LK-2] showed a Kd in assay [2] of 1900 ± 400 nM.

For the molecule `O=C(O)[C@@H]1C[C@H](CP(=O)(O)O)CCN1` [CGS19755], the Kd in assay [3] worked out at 1100 ± 200 nM.
